Measured values as given in the NIST ThermoML archive (doi:10.1016/j.jct.2009.02.002).
Numbers after ± are expanded uncertainties.

Test: xn = mol fraction of the nth substance listed
Conditions: 101 kPa, Liquid; for viscosity: Capillary tube (Ostwald / Ubbelohde) method; for mass density: Vibrating tube method; for speed of sound: automatically measured using an Anton Paar DSA 5000 instrument

CCCCCCCCCCCCCCCC [hexadecane] + CC(C)CO
Conditions	mass density, 298.15 K [kg/m3]	mass density, 303.15 K [kg/m3]	mass density, 308.15 K [kg/m3]	speed of sound, 298.15 K [m/s]	speed of sound, 303.15 K [m/s]	speed of sound, 308.15 K [m/s]	viscosity, 298.15 K [mPa·s]	viscosity, 303.15 K [mPa·s]	viscosity, 308.15 K [mPa·s]
x2 = 0.0505	770.506 ± 0.15	766.982 ± 0.15	763.479 ± 0.15	1333.6 ± 0.5	1314.5 ± 0.5	1296.1 ± 0.5	2.807 ± 0.017	2.494 ± 0.016	2.233 ± 0.014
x2 = 0.108	770.704 ± 0.15	767.145 ± 0.15	763.586 ± 0.15	1328.2 ± 0.5	1309.5 ± 0.5	1291.1 ± 0.5	2.658 ± 0.016	2.345 ± 0.015	2.102 ± 0.014
x2 = 0.1539	770.945 ± 0.15	767.37 ± 0.15	763.784 ± 0.15	1324.2 ± 0.5	1305.5 ± 0.5	1287 ± 0.5	2.601 ± 0.016	2.277 ± 0.014	2.023 ± 0.013
x2 = 0.2202	771.403 ± 0.15	767.797 ± 0.15	764.189 ± 0.15	1318.4 ± 0.5	1299.8 ± 0.5	1281.3 ± 0.5	2.576 ± 0.016	2.246 ± 0.014	1.975 ± 0.013
x2 = 0.2709	771.834 ± 0.15	768.215 ± 0.15	764.58 ± 0.15	1313.8 ± 0.5	1295.1 ± 0.5	1276.6 ± 0.5	2.596 ± 0.016	2.235 ± 0.014	1.952 ± 0.013
x2 = 0.3389	772.519 ± 0.15	768.878 ± 0.15	765.22 ± 0.15	1307.3 ± 0.5	1288.7 ± 0.5	1270.2 ± 0.5	2.638 ± 0.016	2.252 ± 0.014	1.946 ± 0.013
x2 = 0.4112	773.437 ± 0.15	769.755 ± 0.15	766.075 ± 0.15	1299.9 ± 0.5	1281.3 ± 0.5	1262.8 ± 0.5	2.672 ± 0.017	2.292 ± 0.015	1.967 ± 0.013
x2 = 0.5043	774.946 ± 0.15	771.22 ± 0.15	767.482 ± 0.15	1289.8 ± 0.5	1271.2 ± 0.5	1252.8 ± 0.5	2.694 ± 0.017	2.296 ± 0.015	1.985 ± 0.013
x2 = 0.5989	776.918 ± 0.15	773.158 ± 0.15	769.37 ± 0.15	1277.8 ± 0.5	1259.3 ± 0.5	1241 ± 0.5	2.676 ± 0.017	2.295 ± 0.015	1.998 ± 0.013
x2 = 0.6938	779.505 ± 0.15	775.707 ± 0.15	771.873 ± 0.15	1263.6 ± 0.5	1245.3 ± 0.5	1227.4 ± 0.5	2.643 ± 0.016	2.274 ± 0.014	1.984 ± 0.013
x2 = 0.8115	783.946 ± 0.15	780.177 ± 0.15	776.274 ± 0.15	1241.5 ± 0.5	1223.8 ± 0.5	1206.2 ± 0.5	2.673 ± 0.017	2.28 ± 0.015	2 ± 0.013
x2 = 0.8638	786.74 ± 0.14	782.888 ± 0.15	778.972 ± 0.15	1229.5 ± 0.5	1211.9 ± 0.5	1194.4 ± 0.5	2.756 ± 0.017	2.322 ± 0.015	2.009 ± 0.013
x2 = 0.9037	789.326 ± 0.14	785.457 ± 0.15	781.543 ± 0.15	1219 ± 0.5	1201.6 ± 0.5	1184.3 ± 0.5	2.874 ± 0.018	2.379 ± 0.015	2.046 ± 0.013
x2 = 0.938	792.003 ± 0.14	788.12 ± 0.14	784.196 ± 0.15	1209.3 ± 0.5	1192.2 ± 0.5	1175.2 ± 0.5	3.023 ± 0.019	2.469 ± 0.016	2.082 ± 0.014
